# From patent publication US9376421B2, “Compounds and methods for myotonic dystrophy therapy” (The Board of Trustees of the University of Illinois, priority 2014, dated 2016)
# Legend:
# (CUG)16 = (CUG)16 cleavage screening gel assay; type: biochemical; conditions: ligand 100 μM, (CUG)16 100 nM, 12 h, pH 7.4, 37° C., EtBr stain
# Procedure: FIG. 2. Cleavage screening gel. (CUG)16 (SEQ ID NO: 1) (100 nM) was incubated with ligands (100 μM) and (CUG)16 (SEQ ID NO: 1) (100 nM), 12 h, 37° C. The reaction mixture was loaded onto a 20% denaturing PAGE gel and RNA was detected by post-staining with EtBr.
# The potential cleavage activity of 4-9 was screened using a simple gel shift assay with (CUG)16 (SEQ ID NO: 1). To screen the agents, each agent was incubated for 12 h with unlabeled (CUG)16 (SEQ ID NO: 1) at a final concentration of 100 μM at pH 7.4. The mixture was separated on an RNA denaturing gel and stained with EtBr (FIG. 2). No loss of (CUG)16 (SEQ ID NO: 1) intensity was observed upon treatment with 2, 7, or tris(2-aminoethyl)amine (10).
# RNA was fast folded at 95° C. for 5 min, followed by placing in ice for 10 min. RNA with a final concentration of 100 nM was incubated with cleaving agents 100 μM (in screening assays) and with ligand 9 at different concentrations (5, 10, 50, 100 μM). The cleaving buffer was 50 mM Tris buffer (pH 7.4) containing 150 mM NaCl and 2 mM MgCl2. The final volume of the reaction mixture was 10 μL. The reaction was quenched by adding 8 μL of 8 M urea and 2 μL of RNA loading dye followed by heating at 95° C. for 5 min. The mixture was separated on a 20% RNA denaturing gel. For non-labeled RNA, the gel was stained with EtBr and observed under UV. […]
# HIV FS = experiment: Ligand-RNA binding affinity, HIV FS; parameters: species or system HIV-1
# (CCUG)6 / (CCUG)8 = experiment: Ligand-RNA binding affinity, CCUG repeats; conditions: (CCUG)8
# Text: Off target activity is a concern for any therapeutic agent but especially one designed to cleave RNA. To test the selectivity of agents 6 and 9, the screening gel assay described above was applied to other RNA targets, specifically cTNT32, (CCUG)8 (SEQ ID NO: 11), and HIV-1 frameshift site RNA (HIV FS) (FIG. 5a). Both 6 and 9 were quite selective. […] Thus, both similarly adopt stem-loop structures with internal loops within the stem, although obviously of different sequences. Differences between 6 and 9 were observed (FIG. 5) with the former cleaving (CCUG)8 (SEQ ID NO: 11), the toxic RNA involved in myotonic dystrophy type 2 (DM2). […] The ability to process the RNA directly parallels the corresponding ligand-RNA binding affinities. Thus, 1, which contains the acridine-triazine core of agent 6, complexes the (CCUG)6 (SEQ ID NO: 12) and (CUG)n sequences.
# (CTG.CAG)74 = experiment: In vitro transcription of (CTG.CAG)74; type: biochemical
# Procedure: FIG. 8A-B. In vitro transcription of (CTG.CAG)74 (SEQ ID NOS 3-4, respectively). Ligands at different concentrations were incubated with 15 ng linearized plasmids in T7 RNA polymerse mixture at 37° C. After 2 h, the reaction mixture was on a 8% denaturing gel. (a) Transcription gels of ligands at different concentrations (“(CUG)74” is disclosed as SEQ ID NO: 22). (b) Plot of the percentage of transcription inhibition versus ligand concentrations. The error bars represent standard errors of mean of three independent experiments. Untreated at 100 μM is at 0%; ligand 2 at 100 μM is at ˜10%; ligand 7 at 100 μM is at ˜35%; ligand 6 at 100 μM is at ˜80%; ligand 9 at 100 μM is at ˜96%; and ligand 5 at 100 μM is at ˜99%.
# (SEQ ID NOS 3-4, respectively) transcription by 5, 6, and 9 in vitro. […] Nonetheless, the additional ammonium groups in these agents might potentially increase their affinity for both CTG DNA and CUG RNA so we returned to examine the potential for inhibition of CTG^exp transcription. The in vitro (CTG.CAG)74 (SEQ ID NOS 3-4, respectively) transcription assays utilized a T7 promoter located in the upstream region of the repeats.
# (SEQ ID NOS 3-4, respectively). T7 RNA polymerase-mediated transcription reactions were incubated at 37° C. for 2 h. A 10 μL mixture contained 15 ng of linearized plasmid (CTG)74 (SEQ ID NO: 3) or control plasmid templates, 0.5 mM each rATP, rCTP, rGTP, and rUTP and 0.5 U T7 polymerase (Biolab) in 1×T7 transcription buffer (80 mM Tris pH 8.3, 10 mM MgCl2, 2 mM spermine, 0.1% Triton-X, 10 mM NaCl). Ligand was added with the final concentrations of 0, 1, 10, 50, and 100 μM prior to incubation. Reactions were quenched by adding 8 μL of 8 M Urea and 2 μL of denaturing dye (95% formamide, 5 mM EDTA, 0.025% each xylene cyanol and bromophenol blue) and heating to 95° C. for 5 min. Of this solution, 15 μL was run on a 8% denaturing polyacrylamide gel in 0.5×TBE and stained with EtBr. Bands were quantified using the ImageJ (NIH). The intensity of (CUG)74 (SEQ ID NO: 22) band (ca. 260 nt) was normalized to that from the untreated transcription reaction. […]
smiles,measurement,setting,value
N=C(NCCCCNc1nc(N)nc(N)n1)c1ccc(C(=N)NCCCCNc2nc(N)nc(N)n2)cc1 [Ligand 2],loss of (CUG)16 intensity (RNA cleavage),(CUG)16,No loss
same,affinity toward HIV FS,HIV FS,no affinity
same,affinity toward (CCUG)8,(CCUG)6 / (CCUG)8,no affinity
same,transcription inhibition of (CTG.CAG)74 at 100 μM,"(CTG.CAG)74; 100 μM, 2 h, 37° C., T7 RNA polymerase",~10%
same,inhibition of (CTG.CAG)74 transcription (qualitative),(CTG.CAG)74; 1-100 μM,negligible effects
